Measured values as given in patent US8609836B2, “4-aryl-2-anilino-pyrimidines” (Janssen Pharmaceutica NV, priority 2008, dated 2013).

Tests used:
PLK3 (h) = PLK3 (h) (Homo sapiens, UniProt Q9H4B4); test: PLK3 human kinase inhibition, SPA; type: biochemical; conditions: read-out: PLK3 pIC50 (converted)
Method in brief: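 SPA: PLK3 (h) at 30 μg/ml with 2 μM biotinylated peptide, 0.1 μM ATP plus 2 nM [γ-33P]ATP in 50 mM Hepes pH 8.0, 2 mM MnCl2 and 1 mM DTT. Incubated 20 min at room temperature, then stopped with EDTA and streptavidin PVT beads. Scintillation imaged on Leadseeker.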

PLK1 T210D (h) = PLK1 T210D (h) (Homo sapiens, UniProt P53350, T210D); test: PLK1 human kinase inhibition, SPA; type: biochemical; conditions: read-out: PLK1 pIC50 (converted)
Chain of PLK1 T210D (h) (P53350 whole entry T210D): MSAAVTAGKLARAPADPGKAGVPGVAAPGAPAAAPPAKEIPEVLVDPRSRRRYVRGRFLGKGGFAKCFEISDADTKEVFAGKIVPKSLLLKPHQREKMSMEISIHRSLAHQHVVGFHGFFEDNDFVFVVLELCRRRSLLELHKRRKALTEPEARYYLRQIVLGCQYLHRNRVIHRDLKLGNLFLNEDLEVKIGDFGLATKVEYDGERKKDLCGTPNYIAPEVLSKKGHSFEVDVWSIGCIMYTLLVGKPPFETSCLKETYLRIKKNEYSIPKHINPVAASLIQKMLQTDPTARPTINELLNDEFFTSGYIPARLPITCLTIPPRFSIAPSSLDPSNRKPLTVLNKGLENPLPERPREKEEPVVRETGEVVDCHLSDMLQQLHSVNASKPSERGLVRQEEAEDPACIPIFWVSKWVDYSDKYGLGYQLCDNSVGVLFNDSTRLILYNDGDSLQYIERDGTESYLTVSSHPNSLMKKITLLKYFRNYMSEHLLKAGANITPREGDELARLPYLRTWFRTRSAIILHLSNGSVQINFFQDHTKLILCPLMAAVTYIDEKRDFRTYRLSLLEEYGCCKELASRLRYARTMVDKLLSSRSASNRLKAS
Method in brief: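 Radiometric SPA with PLK1 T210D (0.125 ng/ml) in 50 mM Hepes pH 8.0, 2 mM MnCl2, 1 mM DTT, 2 μM biotinylated peptide, 0.1 μM ATP plus 2 nM [γ-33P]ATP. 40 min at room temperature, EDTA stop. Phosphorylated substrate captured on streptavidin PVT beads, scintillation imaged.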

CDK4/CyclinD1 (h) = CDK4/CyclinD1 (h) (Homo sapiens, UniProt P11802); test: CDK4/CyclinD1 human kinase inhibition, SPA with GST-pRb substrate; type: biochemical; conditions: read-out: CDK4 pIC50 (converted)
Chain of CDK4/CyclinD1 (h) (P11802 whole entry): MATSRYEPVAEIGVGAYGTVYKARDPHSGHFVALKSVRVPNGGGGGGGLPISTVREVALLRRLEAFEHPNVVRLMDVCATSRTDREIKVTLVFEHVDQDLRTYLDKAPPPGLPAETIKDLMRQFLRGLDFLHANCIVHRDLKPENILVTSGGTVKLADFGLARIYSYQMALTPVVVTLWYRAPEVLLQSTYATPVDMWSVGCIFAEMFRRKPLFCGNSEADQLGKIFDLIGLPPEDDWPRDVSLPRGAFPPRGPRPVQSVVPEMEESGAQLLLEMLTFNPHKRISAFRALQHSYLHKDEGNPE
Chain of CDK4/CyclinD1 (h) (P24385 whole entry partner): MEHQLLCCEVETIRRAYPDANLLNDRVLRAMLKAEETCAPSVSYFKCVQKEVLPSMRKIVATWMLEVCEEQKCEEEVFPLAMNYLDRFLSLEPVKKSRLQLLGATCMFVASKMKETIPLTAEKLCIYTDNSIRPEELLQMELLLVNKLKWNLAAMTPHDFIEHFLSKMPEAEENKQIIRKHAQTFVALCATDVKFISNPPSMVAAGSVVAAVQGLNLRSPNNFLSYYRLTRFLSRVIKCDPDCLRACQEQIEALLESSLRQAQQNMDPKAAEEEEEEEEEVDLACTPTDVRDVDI
Method in brief: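 Human CDK4/CyclinD1 (2.5 μg/ml) was incubated with 40 μg/ml GST-pRb and 2 nM [γ-33P]ATP in 50 mM Hepes pH 7.5, 8 mM NaF, 20 mM MgCl2, 1 mM DTT for 60 min at room temperature. EDTA stop with glutathione SPA beads; phosphorylation read by scintillation counting.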

A2780 = test: Cellular proliferation assay (Alamar blue), A2780; type: cell-based; conditions: Homo sapiens, 10% FCS, 72 hours with compound, Alamar blue 24 h, read-out: A2780 (cellular proliferation assay, Table 4) (converted)
Method in brief: (§1)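 Cells seeded 24 h without compound, then exposed to compounds for 72 h in 10% FCS at 37 °C, 5% CO2. Viability read by Alamar blue (resazurin 9 μg/ml) fluorescence at 544/590 nm after 6 h (U87-MG) or 24 h (A2780, MDA-MB-231) or 4 h (HCT-116) dye incubation; effect expressed relative to control cells.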

MDA-MB-231 = test: Cellular proliferation assay (Alamar blue), MDA-MB-231; type: cell-based; conditions: Homo sapiens, 10% FCS, 72 hours with compound, Alamar blue 24 h, read-out: MDA/MB231 (cellular proliferation assay, Table 4) (converted)
Method in brief: as §1

GSK3β (h) = GSK3β (h) (Homo sapiens, UniProt P49841); test: GSK-3β human kinase inhibition, SPA; type: biochemical; conditions: read-out: GSK3b pIC50 (converted)
Chain of GSK3β (h) (P49841 whole entry): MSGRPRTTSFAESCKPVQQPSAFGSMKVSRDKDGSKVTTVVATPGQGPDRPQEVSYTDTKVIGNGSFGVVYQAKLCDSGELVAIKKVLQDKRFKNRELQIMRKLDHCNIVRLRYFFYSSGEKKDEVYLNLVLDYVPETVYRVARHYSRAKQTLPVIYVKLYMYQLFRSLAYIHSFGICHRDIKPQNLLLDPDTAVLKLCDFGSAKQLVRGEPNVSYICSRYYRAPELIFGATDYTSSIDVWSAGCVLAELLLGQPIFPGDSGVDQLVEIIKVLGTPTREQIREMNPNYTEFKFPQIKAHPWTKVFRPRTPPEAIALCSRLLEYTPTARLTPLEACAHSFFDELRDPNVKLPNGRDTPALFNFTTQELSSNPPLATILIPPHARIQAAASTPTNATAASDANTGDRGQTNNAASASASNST
Method in brief: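 Scintillation proximity assay: GSK3β (1 μg/ml) with 1 μM biotinylated peptide, 1 μM ATP plus [γ-33P]ATP in Tris pH 7.4, MgCl2, DTT. 60 min at room temperature, stopped with EDTA and streptavidin PVT beads; phosphorylation read by Leadseeker imaging.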

PLK2 (h) = PLK2 (h) (Homo sapiens, UniProt Q9NYY3); test: PLK2 human kinase inhibition, SPA; type: biochemical; conditions: read-out: PLK2 pIC50 (converted)
Chain of PLK2 (h) (Q9NYY3 whole entry): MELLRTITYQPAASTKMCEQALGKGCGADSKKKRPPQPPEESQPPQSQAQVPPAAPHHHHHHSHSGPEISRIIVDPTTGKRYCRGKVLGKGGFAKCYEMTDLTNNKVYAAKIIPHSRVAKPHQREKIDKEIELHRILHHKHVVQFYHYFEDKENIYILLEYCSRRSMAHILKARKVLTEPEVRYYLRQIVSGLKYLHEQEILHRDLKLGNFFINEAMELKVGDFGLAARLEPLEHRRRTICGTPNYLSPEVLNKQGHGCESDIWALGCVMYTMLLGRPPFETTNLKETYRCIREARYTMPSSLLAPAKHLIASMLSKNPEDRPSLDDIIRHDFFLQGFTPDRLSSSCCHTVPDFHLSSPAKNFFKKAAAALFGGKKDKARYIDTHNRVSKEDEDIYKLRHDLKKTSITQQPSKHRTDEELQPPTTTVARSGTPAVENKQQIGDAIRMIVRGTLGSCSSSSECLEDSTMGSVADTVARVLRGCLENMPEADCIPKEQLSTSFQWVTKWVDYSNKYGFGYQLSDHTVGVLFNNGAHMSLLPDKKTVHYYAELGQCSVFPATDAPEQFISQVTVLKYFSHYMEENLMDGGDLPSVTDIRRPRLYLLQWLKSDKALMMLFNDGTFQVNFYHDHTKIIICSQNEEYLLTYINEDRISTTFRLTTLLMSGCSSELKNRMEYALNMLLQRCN
Method in brief: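 SPA read on Leadseeker: PLK2 (30 μg/ml) with 2 μM biotinylated peptide, 0.1 μM ATP plus 2 nM [γ-33P]ATP in 50 mM Hepes pH 8.0, 2 mM MnCl2, 1 mM DTT. Reaction ran 20 min at room temperature, then EDTA stop and streptavidin PVT beads.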

H1299 = test: Cellular proliferation assay (Alamar blue), H1299; type: cell-based; conditions: Homo sapiens, NCI-H1299; 10% FCS; 72 hours with compound; Alamar blue 4 h
Method in brief: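 This proliferation assay on NCI-H1299 cells used an initial 24-hour compound-free incubation after seeding, followed by 72 hours of compound treatment with 10% FCS serum at 37° C. and 5% (v/v) CO2. Viable cells were quantified by a 4 h Alamar blue incubation and fluorescent plate reading at 544 nm/590 nm, and effects were expressed relative to control cells.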

U87-MG = test: Cellular proliferation assay (Alamar blue), U87-MG; type: cell-based; conditions: Homo sapiens, U-87 MG; 10% FCS; 72 hours with compound; Alamar blue 6 h; read-out: U87-MG (cellular proliferation assay, Table 4) (converted)
Method in brief: as §1

HCT-116 = test: Cellular proliferation assay (Alamar blue), HCT-116; type: cell-based; conditions: Homo sapiens, 10% FCS, 72 hours with compound, Alamar blue 4 h
Method in brief: as §1

Chain of PLK3 (h) (Q9H4B4 whole entry): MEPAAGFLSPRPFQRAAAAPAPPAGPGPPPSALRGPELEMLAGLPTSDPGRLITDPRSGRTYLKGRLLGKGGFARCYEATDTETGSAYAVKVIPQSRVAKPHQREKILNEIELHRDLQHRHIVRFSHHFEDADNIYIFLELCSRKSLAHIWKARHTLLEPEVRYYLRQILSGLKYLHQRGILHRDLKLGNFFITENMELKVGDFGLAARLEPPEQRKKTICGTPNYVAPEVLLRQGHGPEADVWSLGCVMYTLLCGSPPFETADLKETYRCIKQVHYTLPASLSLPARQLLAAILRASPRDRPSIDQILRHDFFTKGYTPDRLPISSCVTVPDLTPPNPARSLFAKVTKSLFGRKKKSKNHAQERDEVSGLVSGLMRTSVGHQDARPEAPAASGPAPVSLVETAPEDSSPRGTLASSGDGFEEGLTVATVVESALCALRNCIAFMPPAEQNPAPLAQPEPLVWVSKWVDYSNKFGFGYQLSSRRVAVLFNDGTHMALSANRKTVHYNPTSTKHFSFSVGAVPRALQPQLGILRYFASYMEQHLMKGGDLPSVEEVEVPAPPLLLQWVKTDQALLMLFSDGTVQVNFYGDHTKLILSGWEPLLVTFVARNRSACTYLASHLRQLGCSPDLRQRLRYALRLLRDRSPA

Row | IC50 (PLK3 (h)) [µM] | IC50 (PLK1 T210D (h)) [µM] | IC50 (CDK4/CyclinD1 (h)) [µM] | IC50 (A2780) [µM] | IC50 (MDA-MB-231) [µM] | IC50 (GSK3β (h)) [µM] | IC50 (PLK2 (h)) [µM] | IC50 (H1299) [µM] | IC50 (U87-MG) [µM] | IC50 (HCT-116) [µM] | Compound
1 | > 10 | > 10 | 0.933 | 1.66 | 6.76 | 0.0724 | > 10 | 1.17 | 0.912 | 0.295 | O=C1NCc2cccc(c2)-c2ccnc(n2)Nc2cccc(c2)CN2C[C@@H](O)C[C@@H]12 [Compound 45]
2 | > 10 | > 10 | > 10 | 4.07 | > 10 | > 10 | > 10 | > 10 | 1.74 | > 10 | O=C1NCc2ccc(cc2)-c2ccnc(n2)Nc2ccc(N3CCOCC3)c(c2)CN2CCC[C@@H]12 [Compound 49]
3 | > 10 | > 10 | > 10 | > 10 | > 10 | > 10 | > 10 | > 10 | > 10 | > 10 | O=C1NCc2cccc(c2)-c2ccnc(n2)Nc2cc(ccc2Cl)CN2CCC[C@@H]12 [Compound 51]
4 | > 10 | > 10 | 7.41 | > 10 | > 10 | > 10 | > 10 | > 10 | > 10 | > 10 | O=C1NCc2cccc(c2)-c2ccnc(n2)Nc2ccc(cc2)CN2CCC[C@@H]12 [Compound 54]
5 | > 10 | > 10 | > 10 | > 10 | > 10 | > 10 | > 10 | > 10 | > 10 | > 10 | O=C1NCc2cccc(c2)-c2ccnc(n2)Nc2ccc(cc2)CN2C[C@H](O)C[C@@H]12 [Compound 55]
6 | > 10 | > 10 | > 10 | > 10 | > 10 | > 10 | > 10 | > 10 | > 10 | > 10 | O=C1NCc2ccc(cc2)-c2ccnc(n2)Nc2ccc(N3CCOCC3)c(c2)CN2C[C@H](O)C[C@@H]12 [Compound 56]
7 | > 1 | > 10 | > 10 | > 10 | > 10 | > 10 | > 10 | > 10 | > 10 | > 10 | O=C1NCc2cccc(c2)-c2ccnc(n2)Nc2ccccc2CN2CCC[C@@H]12 [Compound 57]
8 | > 10 | > 10 | > 10 | > 10 | > 10 | > 10 | > 10 | > 10 | > 10 | > 10 | CC(C)(C)O[C@@H]1C[C@H]2C(=O)NCc3cccc(c3)-c3ccnc(n3)Nc3ccccc3CN2C1 [Compound 58]
9 | 9.77 | > 10 | > 10 | 5.89 | 9.12 | 1.91 | > 10 | > 10 | 6.92 | 2.75 | COc1cc2cc(c1)Nc1nccc(n1)-c1ccc(cc1)CN(C)CCNC(=O)C1CCN(CC1)C2 [Compound 62]
10 | > 10 | > 10 | > 10 | > 10 | > 10 | 3.24 | > 10 | > 10 | 7.24 | > 10 | CC(C)Nc1cc2cc(c1)Nc1nccc(n1)-c1ccc(cc1)CN(C)CCCNC(=O)C1CCN(CC1)C2 [Compound 65]
11 | > 10 | > 10 | 0.2 | 3.02 | 3.47 | 0.0759 | > 10 | 2.95 | 0.603 | 0.724 | C[C@@H]1NCCc2cccc(c2)-c2ccnc(n2)Nc2ccc(N3CCOCC3)c(c2)CNC1=O [Compound 100]

Further lines, the compound ahead of its results:

Row | Compound | IC50 (PLK3 (h)) [µM] | IC50 (PLK1 T210D (h)) [µM] | IC50 (CDK4/CyclinD1 (h)) [µM] | IC50 (A2780) [µM] | IC50 (MDA-MB-231) [µM] | IC50 (GSK3β (h)) [µM] | IC50 (PLK2 (h)) [µM] | IC50 (H1299) [µM] | IC50 (U87-MG) [µM] | IC50 (HCT-116) [µM]
12 | CN1CCC(NC(=O)c2ccc3cc2CN2CCC[C@H]2C(=O)NCc2cccc(c2)-c2ccnc(n2)N3)CC1 [Compound 47] | > 1 | > 10 | 1.2 | 3.72 | 5.13 | 0.398 | > 10 | 9.55 | 7.08 | 2.45
13 | O=C1NCc2cccc(c2)-c2ccnc(n2)Nc2cc(ccc2Cl)CN2C[C@H](O)C[C@@H]12 [Compound 52] | > 10 | > 10 | > 10 | > 10 | > 10 | > 10 | > 10 | > 10 | > 10 | > 10
14 | COc1cc2cc(c1)Nc1nccc(n1)-c1ccc(cc1)CN(C)CCCNC(=O)C1CCN(CC1)C2 [Compound 66] | > 10 | > 10 | > 10 | 6.31 | 8.32 | 1.07 | > 3.02 | > 10 | 2.88 | 1.02
15 | COc1cc2cc(c1)Nc1nccc(n1)-c1ccc(OC)c(c1)CN(C)CCNC(=O)C1CCN(CC1)C2 [Compound 67] | > 10 | > 10 | > 10 | > 10 | > 10 | 3.09 | > 3.02 | > 10 | > 10 | > 10
16 | COc1cc2cc(c1)Nc1nccc(n1)-c1ccc(OC)c(c1)CN(C)CCCNC(=O)C1CCN(CC1)C2 [Compound 73] | > 10 | > 10 | > 10 | > 10 | > 10 | > 10 | > 10 | > 10 | 5.13 | 3.09
17 | COc1ccc2cc1CN(C)CCNC(=O)C1CCN(CC1)Cc1cc(NCCc3ccccc3)cc(c1)Nc1nccc-2n1 [Compound 74] | > 10 | > 10 | > 10 | 3.02 | 5.89 | > 10 | > 10 | > 10 | 3.98 | 4.68
18 | O=C1NCCOc2cccc(c2)-c2ccnc(n2)Nc2ccc(N3CCOCC3)c(c2)CN2CCC1CC2 [Compound 94] | > 10 | > 10 | 3.63 | > 10 | > 10 | 2.95 | > 10 | 8.13 | > 10 | 9.12
19 | O=C1NCc2cccc(c2)-c2ccnc(n2)Nc2ccc(N3CCOCC3)c(c2)CN2CCC1CC2 [Compound 95] | > 10 | > 10 | 1.29 | > 10 | > 10 | 3.72 | > 10 | > 10 | > 10 | > 10
20 | C[C@@H]1NCc2cccc(c2)-c2ccnc(n2)Nc2ccc(N3CCOCC3)c(c2)CNC1=O [Compound 101] | > 10 | > 10 | 2.57 | 4.68 | 8.13 | 0.182 | > 10 | 6.61 | 5.01 | 2.69
